The record followed here is patent US20250213596A1, “CANNABINOID-CONTAINING COMPOSITIONS” (BUZZELET DEVELOPMENT AND TECHNOLOGIES LTD., priority 2022, published 2025).

The nature of the series: Flowability / transfer of the product from vessel to vessel. It counts as physicochemical. To be noted: as obtained, ambient temperature. From the text:
As used herein, the term “flowable” with regard to a composition is intended to mean that a majority of particles of the composition have the ability to move freely relative to an inner surface of a vessel in which they are contained.
Purified THC at 99% purity (dronabinol) was used.
A product comprising 66% silica and 33% THC was formed. It felt dry and was free flowing. It transferred fully from one vessel to another.

Consider `CCCCCc1cc(O)c2c(c1)OC(C)(C)[C@@H]1CCC(C)=C[C@@H]21` [dronabinol], for which the “flowability of the material (pourable / free flowing)” value is on record as “could not be poured out of its container”.
